Drawing on patent publication US8673908B2, “Kynurenine production inhibitor” (Kyowa Hakko Kirin Co., Ltd., priority 2008, dated 2014), this text covers IC50 for 35 compounds.

In the assay the test system is kynurenine production in IFN-γ-treated KATO-III cells. As to the kind of experiment: Inhibitory activity on kynurenine production (Test Example 1). As to conditions: Homo sapiens, IFN-γ treatment, culture for 96 hours, read-out: IC50 value, inhibition of kynurenine production. The class given is cell-based. Summed up:
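Read-out is absorbance at 480 nm of medium treated with trichloroacetic acid, then p-dimethylaminobenzaldehyde, to quantify kynurenine. DMSO-only wells with and without IFN-γ serve as references. Cells were KATO-III, 2,000 per well, 96 h at 37 °C/5% CO2 with compound (DMSO ≤0.1%) and IFN-γ at 31.25 ng/mL in the added suspension.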

`CCCS(=O)(=O)Nc1nc2ccccc2nc1OC(c1cnc(Cl)s1)C(F)(F)F` (centres unmarked) [Compound 196, N-{3-[1-(2-chlorothiazol-5-yl)-2,2,2-trifluoroethoxy]-quinoxalin-2-yl}propane-1-sulfonamide]: the half-maximal inhibitory concentration (IC50) (usually the concentration needed to halve the response being measured) is less than 1000 nM.

Consider `CCC(Oc1nc2ccccc2nc1NS(=O)(=O)c1cccc(Cl)c1Cl)c1cccnc1` (centres unmarked) [Compound 31, 2,3-dichloro-N-{3-[1-(pyridin-3-yl)propoxy]quinoxalin-2-yl}benzenesulfonamide], for which the IC50 is less than 1000 nM.

`CCCS(=O)(=O)Nc1nc2ccccc2nc1O[C@H](c1ccc(C)nc1)C(F)(F)F` [Compound 319, (R)—N-{3-[2,2,2-trifluoro-1-(6-methylpyridin-3-yl)ethoxy]-quinoxalin-2-yl}propane-1-sulfonamide]: the IC50 was less than 1000 nM.

On to `O=S(=O)(CC1CC1)Nc1nc2ccccc2nc1O[C@H](c1cccnc1)C(F)(F)F` [Compound 307, (R)-1-cyclopropyl-N-{3-[2,2,2-trifluoro-1-(pyridin-3-yl)-ethoxy]quinoxalin-2-yl}methanesulfonamide], for which the IC50 is less than 1000 nM.

For the compound `CCCNS(=O)(=O)Nc1nc2ccccc2nc1OC(c1cccc(C#N)c1)C(F)(F)F` (centres unmarked) [Compound 291, N-{3-[1-(3-cyanophenyl)-2,2,2-trifluoroethoxy]quinoxalin-2-yl}-N′-propyl-sulfuric diamide], the half-inhibitory concentration (IC50) is less than 1000 nM.

With `Cc1nn(C)c(Cl)c1S(=O)(=O)Nc1nc2ccccc2nc1OC(C1CCOCC1)C(F)(F)F` (centres unmarked) [Compound 120, 5-chloro-1,3-dimethyl-N-{3-[2,2,2-trifluoro-1-(tetrahydro-2H-pyran-4-yl)ethoxy]quinoxalin-2-yl}-1H-pyrazole-4-sulfonamide], the IC50 was less than 1000 nM.

Regarding `Cn1cncc1C(Oc1nc2ccccc2nc1NS(=O)(=O)NC1CC1)C(F)(F)F` (centres unmarked) [Compound 287, N-{3-[2,2,2-trifluoro-1-(1-methyl-1H-imidazol-5-yl)ethoxy]-quinoxalin-2-yl}-N′-cyclopropyl-sulfuric diamide], the IC50 is 1000 to 10000 nM.

With `CCCNS(=O)(=O)Nc1nc2ccccc2nc1OC(c1cncs1)C(F)(F)F` (centres unmarked) [Compound 281, N-{3-[2,2,2-trifluoro-1-(thiazol-5-yl)ethoxy]quinoxalin-2-yl}-N′-propyl-sulfuric diamide], the IC50 is less than 1000 nM.

Regarding `CCCS(=O)(=O)Nc1nc2ccccc2nc1OC(c1cncc(Cl)c1)C(F)(F)F` (centres unmarked) [Compound 335, N-{3-[2,2,2-trifluoro-1-(5-chloropyridin-3-yl)ethoxy]-quinoxalin-2-yl}propane-1-sulfonamide], the IC50 was less than 1000 nM.

Take `O=S(=O)(Nc1nc2ccccc2nc1OC(c1cccnc1)C(F)(F)F)c1cc2ccccc2s1` (centres unmarked) [Compound 164, N-{3-[2,2,2-trifluoro-1-(pyridin-3-yl)ethoxy]quinoxalin-2-yl}benzo[b]thiophene-2-sulfonamide]: the IC50 was less than 1000 nM.

As to `CC(CN1CCOCC1)Oc1nc2ccccc2nc1NS(=O)(=O)c1ccccc1Cl` (centres unmarked) [Compound 230, 2-chloro-N-[3-(1-morpholinopropan-2-yloxy)quinoxalin-2-yl]-benzenesulfonamide], the half-maximal inhibitory concentration (IC50) is less than 1000 nM.

`O=S(=O)(Nc1nc2ccccc2nc1OC(c1cccnc1)C(F)(F)F)N1CCOCC1` (centres unmarked) [Compound 188, N-{3-[2,2,2-trifluoro-1-(pyridin-3-yl)ethoxy]quinoxalin-2-yl}morpholine-4-sulfonamide]: the concentration for half-maximal inhibition (IC50) was less than 1000 nM.

On to `CCCNS(=O)(=O)Nc1nc2ccccc2nc1OC(c1ccc[n+]([O-])c1)C(C)C` (centres unmarked) [Compound 214, 3-{2-methyl-1-[3-(N-propylsulfamoylamino)quinoxalin-2-yloxy]propyl}pyridine 1-oxide], for which the IC50 was less than 1000 nM.

With `Cc1ccccc1S(=O)(=O)Nc1nc2ccccc2nc1OC(c1cccnc1)C(F)(F)F` (centres unmarked) [Compound 156, 2-methyl-N-{3-[2,2,2-trifluoro-1-(pyridin-3-yl)ethoxy]-quinoxalin-2-yl}benzenesulfonamide], the concentration for half-maximal inhibition (IC50) is less than 1000 nM.

As for `O=S(=O)(Nc1nc2ccccc2nc1OC(c1cccnc1)C(F)(F)F)c1ccccc1F` (centres unmarked) [Compound 144, 2-fluoro-N-{3-[2,2,2-trifluoro-1-(pyridin-3-yl)ethoxy]-quinoxalin-2-yl}benzenesulfonamide], the IC50 is less than 1000 nM.

For the compound `Cc1nc(C)c(S(=O)(=O)Nc2nc3ccccc3nc2OC(c2cccnc2)C(F)(F)F)s1` (centres unmarked) [Compound 163, 2,4-dimethyl-N-{3-[2,2,2-trifluoro-1-(pyridin-3-yl)ethoxy]-quinoxalin-2-yl}thiazole-5-sulfonamide], the IC50 is less than 1000 nM.

As to `CC(CCOc1nc2ccccc2nc1NS(=O)(=O)c1ccccc1Cl)c1cccnc1` (centres unmarked) [Compound 177, 2-chloro-N-{3-[3-(pyridin-3-yl)butoxy]quinoxalin-2-yl}-benzenesulfonamide], the IC50 was less than 1000 nM.

Regarding `O=S(=O)(Nc1nc2ccccc2nc1OCc1ccccc1)c1cccc(Cl)c1Cl` [Compound 32, 2,3-dichloro-N-(3-benzyloxyquinoxalin-2-yl)benzenesulfonamide], the IC50 was 1000 to 10000 nM.

In the case of `Cc1ccc(C(Oc2nc3ccccc3nc2NS(=O)(=O)c2ccccc2Cl)C(F)(F)F)cn1` (centres unmarked) [Compound 41, 2-chloro-N-{3-[2,2,2-trifluoro-1-(6-methylpyridin-3-yl)-ethoxy]quinoxalin-2-yl}benzenesulfonamide], the concentration for half-maximal inhibition (IC50) was less than 1000 nM.

For `O=S(=O)(Nc1nc2ccccc2nc1OC(c1cccnc1)C(F)(F)F)c1cccs1` (centres unmarked) [Compound 140, N-{3-[2,2,2-trifluoro-1-(pyridin-3-yl)ethoxy]quinoxalin-2-yl}thiophene-2-sulfonamide], the IC50 was less than 1000 nM.

Take `Cc1ncc(C(Oc2nc3ccccc3nc2NS(=O)(=O)NC2CC2)C(F)(F)F)s1` (centres unmarked) [Compound 324, N-cyclopropyl-N′-{3-[2,2,2-trifluoro-1-(2-methylthiazol-5-yl)ethoxy]quinoxalin-2-yl}sulfuric diamide]: the IC50 is less than 1000 nM.

Consider `CN1CCOc2cc(S(=O)(=O)Nc3nc4ccccc4nc3OC(c3cccnc3)C(F)(F)F)ccc21` (centres unmarked) [Compound 165, 4-methyl-N-{3-[2,2,2-trifluoro-1-(pyridin-3-yl)ethoxy]-quinoxalin-2-yl}-3,4-dihydro-2H-benzo[b][1,4]oxazine-7-sulfonamide], for which the 50% inhibitory concentration (IC50) is less than 1000 nM.

Consider `O=S(=O)(Nc1nc2ccccc2nc1OC(C1CCCCC1)C(F)(F)F)c1cccc(Cl)c1Cl` (centres unmarked) [Compound 102, 2,3-dichloro-N-[3-(1-cyclohexyl-2,2,2-trifluoroethoxy)-quinoxalin-2-yl]benzenesulfonamide], for which the IC50 was less than 1000 nM.

In the case of `CCCS(=O)(=O)Nc1nc2ccccc2nc1OC(C(F)(F)F)C1(F)CCOCC1` (centres unmarked) [Compound 350, N-{3-[2,2,2-trifluoro-1-(4-fluorotetrahydro-2H-pyran-4-yl)-ethoxy]quinoxalin-2-yl}propane-1-sulfonamide], the half-maximal inhibitory concentration (IC50) is less than 1000 nM.

Take `O=S(=O)(Nc1nc2ccccc2nc1OC1(c2cccnc2)CCOCC1)c1ccccc1Cl` [Compound 90, 2-chloro-N-{3-{[4-(pyridin-3-yl)tetrahydropyran-4-yl]oxy}-quinoxalin-2-yl}benzenesulfonamide]: the half-inhibitory concentration (IC50) is less than 1000 nM.

`CCCS(=O)(=O)Nc1cc2ccccc2nc1OC(c1cccnc1)C(F)(F)F` (centres unmarked) [Compound 358, N-{2-[2,2,2-trifluoro-1-(pyridin-3-yl)ethoxy]quinolin-3-yl}propane-1-sulfonamide]: the IC50 was 1000 to 10000 nM.

Regarding `Cc1nn(C)c(Cl)c1S(=O)(=O)Nc1nc2ccccc2nc1OC(c1cccnc1)C1(F)CCOCC1` (centres unmarked) [Compound 87, 5-chloro-1,3-dimethyl-N-{3-[4-fluorotetrahydropyran-4-yl-(pyridin-3-yl)methoxy]quinoxalin-2-yl}-1H-pyrazole-4-sulfonamide], the IC50 is less than 1000 nM.

For the compound `CCCS(=O)(=O)Nc1nc2ccccc2nc1OC(C(F)(F)F)C1(F)CCN(S(C)(=O)=O)CC1` (centres unmarked) [Compound 355, N-{3-[2,2,2-trifluoro-1-(4-fluoro-1-methanesulfonylpiperidin-4-yl)ethoxy]quinoxalin-2-yl}propane-1-sulfonamide], the 50% inhibitory concentration (IC50) was less than 1000 nM.

`Cn1cncc1C(Oc1nc2ccccc2nc1NS(=O)(=O)c1cccc(Cl)c1Cl)C(F)(F)F` (centres unmarked) [Compound 97, 2,3-dichloro-N-{3-[2,2,2-trifluoro-1-(1-methyl-1H-imidazol-5-yl)ethoxy]quinoxalin-2-yl}benzenesulfonamide]: the IC50 is less than 1000 nM.

With `O=S(=O)(Nc1nc2ccccc2nc1OC(C1CCOC1)C(F)(F)F)c1ccccc1Cl` (centres unmarked) [Compound 136, 2-chloro-N-{3-[2,2,2-trifluoro-1-(tetrahydrofuran-3-yl)-ethoxy]quinoxalin-2-yl}benzenesulfonamide], the IC50 is less than 1000 nM.

As to `CC(C)(C#N)C(Oc1nc2ccccc2nc1NS(=O)(=O)c1ccccc1Cl)c1cccnc1` (centres unmarked) [Compound 67, 2-chloro-N-{3-[2-cyano-2-methyl-1-(pyridin-3-yl)propoxy]-quinoxalin-2-yl}benzenesulfonamide], the 50% inhibitory concentration (IC50) is less than 1000 nM.

As to `CCCNS(=O)(=O)Nc1nc2ccccc2nc1OC(c1ccc(Cl)nc1)C(F)(F)F` (centres unmarked) [Compound 283, N-{3-[1-(6-chloropyridin-3-yl)-2,2,2-trifluoroethoxy]-quinoxalin-2-yl}-N′-propyl-sulfuric diamide], the IC50 is less than 1000 nM.

As for `CCCS(=O)(=O)Nc1nc2ccccc2nc1OC(c1cncc(C)c1)C(F)(F)F` (centres unmarked) [Compound 331, N-{3-[2,2,2-trifluoro-1-(5-methylpyridin-3-yl)ethoxy]-quinoxalin-2-yl}propane-1-sulfonamide], the IC50 was less than 1000 nM.

As to `CCCS(=O)(=O)Nc1nc2ccccc2nc1OC(C1CCN(C)CC1)C(F)(F)F` (centres unmarked) [Compound 326, N-{3-[2,2,2-trifluoro-1-(1-methylpiperidin-4-yl)ethoxy]-quinoxalin-2-yl}propane-1-sulfonamide], the IC50 is 1000 to 10000 nM.

In the case of `C=CCS(=O)(=O)Nc1nc2ccccc2nc1OC(c1cccnc1)C(F)(F)F` (centres unmarked) [Compound 304, N-{3-[2,2,2-trifluoro-1-(pyridin-3-yl)ethoxy]quinoxalin-2-yl}-2-propene-1-sulfonamide], the IC50 was less than 1000 nM.
